# Reference: ChEMBL document CHEMBL1201862, “PubChem BioAssay data set” (2004)
#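 Briefly, cells in 96-well plates were exposed to five compound concentrations for 48 h, and endpoints were estimated by linear interpolation. GI50 = concentration required for 50% inhibition of growth.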 Activity calls are given as the source filed them. No stated cut-off is given here; in the data, active = GI50 up to about 1.1 µM and inactive = higher.
# Columns and labels:
# Assay in all cases: growth of human tumour cells (NCI), 48 h
# [1] = system: A549
# [2] = system: BT-549
# [3] = system: CAKI-1
# [4] = system: EKVX
# [5] = system: HCT-15
# [6] = system: HL-60
# [7] = system: HT-29
# [8] = system: IGROV-1
# [9] = system: MDA-MB-231
# [10] = system: NCI-H226
# [11] = system: NCI-H460
# [12] = system: OVCAR-4
# [13] = system: OVCAR-8
# [14] = system: RXF 393
# [15] = system: SK-MEL-28
# [16] = system: SK-MEL-5
# [17] = system: SN12C
# [18] = system: SR
# [19] = system: TK-10
# [20] = system: UACC-62
Compound,GI50 [1],GI50 [2],GI50 [3],GI50 [4],GI50 [5] [µM],GI50 [6],GI50 [7],GI50 [8],GI50 [9],GI50 [10],GI50 [11],GI50 [12],GI50 [13],GI50 [14],GI50 [15],GI50 [16],GI50 [17],GI50 [18],GI50 [19],GI50 [20]
Cc1c(C)c(C)c(-n2c(=O)n(C)c(=O)n2-c2cc(C(C)(C)C)cc(C(C)(C)C)c2O)c(C)c1C,5.66 µM (inactive),13.5 µM (inactive),11.7 µM (inactive),10.5 µM (inactive),8.43,3.04 µM (inactive),3.64 µM (inactive),10.1 µM (inactive),3.91 µM (inactive),8.32 µM (inactive),11.4 µM (inactive),7.28 µM (inactive),10.4 µM (inactive),2.97 µM (inactive),13.7 µM (inactive),6.21 µM (inactive),9.44 µM (inactive),3.91 µM (inactive),10.1 µM (inactive),11.1 µM (inactive)
CC(C)(Br)C(Br)CC/C(=C/CBr)CBr.CC(C)(Br)C(Br)CC/C(=C\CBr)CBr (stereo not given),13.9 µM (inactive),2.45 µM (inactive),9.91 µM (inactive),25.3 µM (inactive),2.51,0.553 µM (active),3.02 µM (inactive),3.08 µM (inactive),12 µM (inactive),14.2 µM (inactive),3.21 µM (inactive),5.2 µM (inactive),2.54 µM (inactive),2.22 µM (inactive),2.27 µM (inactive),4.5 µM (inactive),2 µM (inactive),0.783 µM (active),8.77 µM (inactive),2.05 µM (inactive)
Nc1nc2c(C(=O)NCc3cccs3)nnn2c2cccc(Cl)c12,> 100 µM (inactive),> 100 µM (inactive),> 100 µM (inactive),57.8 µM (inactive),> 100,> 100 µM (inactive),> 100 µM (inactive),> 100 µM (inactive),60.1 µM (inactive),92 µM (inactive),> 100 µM (inactive),> 100 µM (inactive),84.7 µM (inactive),59.4 µM (inactive),92.3 µM (inactive),92.3 µM (inactive),> 100 µM (inactive),52.2 µM (inactive),> 100 µM (inactive),> 100 µM (inactive)
O=C(O)c1cc(C(=O)O)nc(C(=O)O)c1,> 100 µM (inactive),> 100 µM (inactive),> 100 µM (inactive),> 100 µM (inactive),> 100,> 100 µM (inactive),> 100 µM (inactive),> 100 µM (inactive),> 100 µM (inactive),> 100 µM (inactive),> 100 µM (inactive),> 100 µM (inactive),> 100 µM (inactive),> 100 µM (inactive),> 100 µM (inactive),> 100 µM (inactive),> 100 µM (inactive),> 100 µM (inactive),> 100 µM (inactive),> 100 µM (inactive)
CC(C)C1OC(/C=C/c2ccccc2)OCC1(C)C (stereo not given),29.9 µM (inactive),36.1 µM (inactive),31.8 µM (inactive),27.5 µM (inactive),24.8,19.9 µM (inactive),27.7 µM (inactive),40.1 µM (inactive),36.4 µM (inactive),23.5 µM (inactive),17.1 µM (inactive),33.6 µM (inactive),31.6 µM (inactive),18.1 µM (inactive),53.3 µM (inactive),17.7 µM (inactive),21.6 µM (inactive),30.1 µM (inactive),35.1 µM (inactive),45.7 µM (inactive)
CC12CCc3ccccc3C1=Nc1ccccc12 (stereo not given),73.5 µM (inactive),17.8 µM (inactive),17.7 µM (inactive),25.1 µM (inactive),38.1,28.8 µM (inactive),29.9 µM (inactive),71.1 µM (inactive),24.2 µM (inactive),21.8 µM (inactive),37.3 µM (inactive),41.3 µM (inactive),42.5 µM (inactive),74.3 µM (inactive),90.2 µM (inactive),12.6 µM (inactive),0.164 µM (active),45.3 µM (inactive),53.8 µM (inactive),29.4 µM (inactive)
Cc1c(C=C(C#N)C#N)c(=O)n(C)c(=O)n1C,> 100 µM (inactive),> 100 µM (inactive),> 100 µM (inactive),81.5 µM (inactive),> 100,> 100 µM (inactive),> 100 µM (inactive),> 100 µM (inactive),> 100 µM (inactive),> 100 µM (inactive),> 100 µM (inactive),> 100 µM (inactive),> 100 µM (inactive),> 100 µM (inactive),> 100 µM (inactive),> 100 µM (inactive),> 100 µM (inactive),32.9 µM (inactive),> 100 µM (inactive),> 100 µM (inactive)
Cc1ccc(-c2nc3cc([N+](=O)[O-])ccc3[nH]2)cc1,54.1 µM (inactive),> 100 µM (inactive),38 µM (inactive),51.6 µM (inactive),52.8,45.3 µM (inactive),39.2 µM (inactive),> 100 µM (inactive),> 100 µM (inactive),> 100 µM (inactive),42.8 µM (inactive),81.8 µM (inactive),93.1 µM (inactive),> 100 µM (inactive),> 100 µM (inactive),64.7 µM (inactive),> 100 µM (inactive),70.8 µM (inactive),> 100 µM (inactive),> 100 µM (inactive)
CN(C)CCCc1c[nH]c2ccccc12,> 100 µM (inactive),> 100 µM (inactive),> 100 µM (inactive),> 100 µM (inactive),> 100,> 100 µM (inactive),> 100 µM (inactive),> 100 µM (inactive),> 100 µM (inactive),> 100 µM (inactive),> 100 µM (inactive),> 100 µM (inactive),> 100 µM (inactive),> 100 µM (inactive),> 100 µM (inactive),> 100 µM (inactive),> 100 µM (inactive),> 100 µM (inactive),> 100 µM (inactive),> 100 µM (inactive)
COc1c(O)c2ccccc2c2cc(O)ccc12,8.65 µM (inactive),2.43 µM (inactive),11.2 µM (inactive),18.1 µM (inactive),6.34,2.86 µM (inactive),21 µM (inactive),9.57 µM (inactive),3.91 µM (inactive),13.6 µM (inactive),7.69 µM (inactive),6.56 µM (inactive),3.88 µM (inactive),9.93 µM (inactive),4.91 µM (inactive),2.17 µM (inactive),5.2 µM (inactive),12.4 µM (inactive),25.4 µM (inactive),2.67 µM (inactive)
